Source: patent publication US20220280579A1, “Formulations for Prevention or Reduction of C. Difficile Infections” (priority 2019, published 2022)
“And” between values parts separate entries of the source, which are not always exact repeats. Identical values can stand only once.

System: CD strain 630
Test: Example 7: Holloway model of CDI, GlcNAc or glucosamine in drinking water
Conditions: for Ethanol resistant CFU, CFU/g faeces: individual mice

| SMILES | CD colonisation (mouse, in vivo) | CD infections (CDI) in mice (mouse, in vivo) | Water consumption: Daily consumption per mouse (20 mg/ml in drinking water) | Ethanol resistant CFU, CFU/g faeces (20 mg/ml in drinking water, hydrochloride) | Water consumption: Daily consumption per mouse (50 mg/ml in drinking water) | Ethanol resistant CFU, CFU/g faeces (50 mg/ml in drinking water) | Water consumption: Daily consumption per mouse (100 mg/ml in drinking water) | Ethanol resistant CFU, CFU/g faeces (100 mg/ml in drinking water, hydrochloride) | CD colonisation (levels as low as 20 mg/ml in drinking water, summary in words) | CD infections (CDI) in mice (water containing 20 mg/ml, conclusion in words) |
| --- | --- | --- | --- | --- | --- | --- | --- | --- | --- | --- |
| CC(=O)N[C@H]1C(O)O[C@H](CO)[C@@H](O)[C@@H]1O (stereo partly shown) [GlcNAc, N-acetyl-glucosamine] | could suppress CD colonisation | prevented CD infections |  |  |  |  |  |  |  |  |
| Cl.N[C@H]1C(O)O[C@H](CO)[C@@H](O)[C@@H]1O (stereo partly shown) [Glucosamine, Glucosamine hydrochloride] |  |  | 4.2 mL | 0.00E+00 CFU/g faeces (5×) and 1.90E+06 CFU/g faeces | 2.8 mL | 0.00E+00 CFU/g faeces | 1 mL | 0.00E+00 CFU/g faeces (4×) and 1.70E+05 CFU/g faeces and 8.00E+04 CFU/g faeces | could suppress CD colonisation | prevented CD infections |
